Results from US10183949B2, “Pyrimidinone derivative having autotaxin-inhibitory activity” (The University of Tokyo, priority 2014, dated 2019).

Molecular target: T1, Human autotaxin enzyme (Homo sapiens, UniProt Q13822)
T1 construct: purchased R&D System
Experiment: Evaluation of autotaxin inhibitor, 18:0 Lyso PC / choline assay (Test Example 2)
Format: biochemical
Conditions: human autotaxin enzyme, 18:0 Lyso PC substrate, choline assay, room temperature 2 hours; read-out: Inhibitor activity (IC50)
Procedure, shortened: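 Human autotaxin in 100 mM Tris-HCl pH 7.5, 150 mM NaCl, 5 mM MgCl2, 0.05% Triton X-100 reacted with 18:0 Lyso PC (200 μM stock) and test compound 2 h at room temperature. Released choline quantified via choline oxidase/peroxidase resorufin fluorescence (ex 531/em 598 nm, 20 min); inhibition vs no-compound and no-enzyme controls, concentration-response curve.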

SMILES	IC50 [nM]
COC(=O)Nc1cc(Cl)ccc1-c1cc(=O)n(CC(=O)NC2(C)COC2)c(C)n1 [Compound I-0410]	< 10
COC(=O)Nc1cc(Cl)ccc1-c1cc(=O)n(CC(=O)N2CC(C)(O)C2)c(C)n1 [Compound I-0411]	100 to 1000
COC(=O)Nc1cc(Cl)ccc1-c1cc(=O)n(CC(=O)NC(C)(C)CO)c(C)n1 [Compound I-0412]	< 10
COC(=O)Nc1cc(Cl)ccc1-c1cc(=O)n(CC(=O)NCC(C)(C)O)c(C)n1 [Compound I-0413]	10 to 100
COC(=O)Nc1cc(C#N)ccc1-c1cc(=O)n(CC(=O)NCc2c[nH]nn2)c(C)n1 [Compound I-0414]	< 10
COC(=O)Nc1cc(Cl)ccc1-c1cc(=O)n(CC(=O)NC(C)(C)CF)c(C)n1 [Compound I-0415]	< 10
Cc1nc(-c2ccc(Cl)cc2NC(=O)C2CC2)cc(=O)n1CC(=O)NC1(C#N)CC1 [Compound I-0416]	10 to 100
COC(=O)Nc1cc(C#N)ccc1-c1cc(=O)n(CC(=O)NCC2(CO)CC2)c(C)n1 [Compound I-0417]	10 to 100
COC(=O)Nc1cc(C#N)ccc1-c1cc(=O)n(CC(=O)N2CCC(O)CC2)c(C)n1 [Compound I-0418]	10 to 100
Cc1nc(-c2ccc(Cl)cc2NC(=O)C2CC2)cc(=O)n1CC(=O)NC1(C)COC1 [Compound I-0419]	10 to 100
Cc1nc(-c2ccc(Cl)cc2NC(=O)C2CC2)cc(=O)n1CC(=O)N1CC(C)(O)C1 [Compound I-0420]	100 to 1000
COC(=O)Nc1cc(Cl)ccc1-c1cc(=O)n(CC(=O)NCc2c[nH]nn2)c(C)n1 [Compound I-0421]	< 10
Cc1nc(-c2ccc(Cl)cc2NC(=O)C2CC2)cc(=O)n1CC(=O)NC(C)(C)CO [Compound I-0422]	10 to 100
Cc1nc(-c2ccc(Cl)cc2NC(=O)C2CC2)cc(=O)n1CC(=O)NCC(C)(C)O [Compound I-0423]	10 to 100
Cc1nc(-c2ccc(Cl)cc2NC(=O)C2CC2)cc(=O)n1CC(=O)NC(C)(C)CF [Compound I-0424]	10 to 100
COC(=O)Nc1cc(Cl)ccc1-c1cc(=O)n(CC(=O)N2CCC(O)CC2)c(C)n1 [Compound I-0425]	10 to 100
CC(C)(C)C(=O)Nc1cc(Cl)ccc1-c1cc(=O)n(Cc2cccc(C(=O)O)c2)cn1 [Compound I-0427]	10 to 100
COC(=O)Nc1cc(C#N)ccc1-c1cc(=O)n(CC(=O)NCC2CNC(=O)C2)c(C)n1 (stereo not shown) [Compound I-0428]	10 to 100
COC(=O)Nc1cc(C#N)ccc1-c1cc(=O)n(CC(=O)NCc2cc(=O)[nH]o2)c(C)n1 [Compound I-0429]	< 10

SMILES	IC50 [nM]
COC(=O)Nc1cc(C#N)ccc1-c1cc(=O)n(CC(=O)NCC2CNC(=O)O2)c(C)n1 (stereo not shown) [Compound I-0430]	10 to 100
Cc1nc(-c2ccc(Cl)cc2NC(=O)C2CC2)cc(=O)n1CC(=O)NCc1c[nH]nn1 [Compound I-0431]	10 to 100
COC(=O)Nc1cc(Cl)ccc1-c1cc(=O)n(CC(=O)N2CCC(C#N)CC2)c(C)n1 [Compound I-0433]	10 to 100
Cc1nc(-c2ccc(Cl)cc2NC(=O)C2CC2)cc(=O)n1CC(=O)NCC1(CO)CC1 [Compound I-0434]	10 to 100
Cc1nc(-c2ccc(Cl)cc2NC(=O)C2CC2)cc(=O)n1CC(=O)N1CCC(O)CC1 [Compound I-0435]	10 to 100
COC(=O)Nc1cc(Cl)ccc1-c1cc(=O)n(CC(=O)NCC2CCC(=O)N2)c(C)n1 (stereo not shown) [Compound I-0437]	10 to 100
COC(=O)Nc1cc(Cl)ccc1-c1cc(=O)n(CC(=O)NCC2CNC(=O)C2)c(C)n1 (stereo not shown) [Compound I-0438]	10 to 100
COC(=O)Nc1cc(Cl)ccc1-c1cc(=O)n(CC(=O)NCc2cc(=O)[nH]o2)c(C)n1 [Compound I-0439]	< 10
COC(=O)Nc1cc(Cl)ccc1-c1cc(=O)n(CC(=O)NC2(C(=N)NO)CC2)c(C)n1 [Compound I-0440]	10 to 100
COC(=O)Nc1cc(Cl)ccc1-c1cc(=O)n(CC(=O)N2CC(C(C)(C)O)C2)c(C)n1 [Compound I-0441]	100 to 1000
COC(=O)Nc1cc(Cl)ccc1-c1cc(=O)n(CC(=O)NCC2CNC(=O)O2)c(C)n1 (stereo not shown) [Compound I-0442]	10 to 100
O=C(Cn1cnc(-c2ccc(Cl)cc2)cc1=O)NCCNC(=O)c1ccc2nn[nH]c2c1 [Compound I-0443]	≥ 1000
COC(=O)Nc1cc(C#N)ccc1-c1cc(=O)n(CC(=O)NC(C)(C)C(F)(F)F)c(C)n1 [Compound I-0444]	< 10
COC(=O)Nc1cc(C#N)ccc1-c1cc(=O)n(CC(=O)N2CCC(C(N)=O)CC2)c(C)n1 [Compound I-0445]	< 10
COC(=O)Nc1cc(C#N)ccc1-c1cc(=O)n(CC(=O)N2CCN(C(N)=O)CC2)c(C)n1 [Compound I-0446]	10 to 100
CC(C)(C)C(=O)Nc1cc(Cl)ccc1-c1cc(=O)n(CC(=O)Nc2cnccc2O)cn1 [Compound I-0447]	100 to 1000
Cc1nc(-c2ccc(Cl)cc2NC(=O)C2CC2)cc(=O)n1CC(=O)NCC1CCC(=O)N1 (stereo not shown) [Compound I-0450]	10 to 100
COC(=O)Nc1cc(Cl)ccc1-c1cc(=O)n(CC(=O)NC2(c3nc(=O)o[nH]3)CC2)c(C)n1 [Compound I-0470]	< 10

Other lines, results leading:

IC50 [nM]	SMILES
10 to 100	Cc1nc(-c2ccc(Cl)cc2NC(=O)C2CC2)cc(=O)n1CC(=O)NCC1CNC(=O)C1 (stereo not shown) [Compound I-0451]
10 to 100	Cc1nc(-c2ccc(Cl)cc2NC(=O)C2CC2)cc(=O)n1CC(=O)NCc1cc(=O)[nH]o1 [Compound I-0452]
100 to 1000	Cc1nc(-c2ccc(Cl)cc2NC(=O)C2CC2)cc(=O)n1CC(=O)N1CC(C(C)(C)O)C1 [Compound I-0454]
10 to 100	COC(=O)Nc1cc(Cl)ccc1-c1cc(=O)n(CC(=O)NC2(C(F)(F)F)CC2)c(C)n1 [Compound I-0455]
10 to 100	Cc1nc(-c2ccc(Cl)cc2NC(=O)C2CC2)cc(=O)n1CC(=O)NCC1CNC(=O)O1 (stereo not shown) [Compound I-0456]
< 10	COC(=O)Nc1cc(Cl)ccc1-c1cc(=O)n(CC(=O)NC(C)(C)C(F)(F)F)c(C)n1 [Compound I-0457]
< 10	COC(=O)Nc1cc(Cl)ccc1-c1cc(=O)n(CC(=O)N2CCC(C(N)=O)CC2)c(C)n1 [Compound I-0458]
10 to 100	COC(=O)Nc1cc(Cl)ccc1-c1cc(=O)n(CC(=O)N2CCN(C(N)=O)CC2)c(C)n1 [Compound I-0459]
≥ 1000	O=C(Cn1cnc(-c2ccc(Cl)cc2)cc1=O)NCCCNC(=O)c1ccc2[nH]nnc2c1 [Compound I-0460]
10 to 100	Cc1nc(-c2ccc(Cl)cc2NC(=O)C2CC2)cc(=O)n1CC(=O)NC1(C(F)(F)F)CC1 [Compound I-0461]
10 to 100	Cc1nc(-c2ccc(Cl)cc2NC(=O)C2CC2)cc(=O)n1CC(=O)NC(C)(C)C(F)(F)F [Compound I-0462]
10 to 100	Cc1nc(-c2ccc(Cl)cc2NC(=O)C2CC2)cc(=O)n1CC(=O)N1CCC(C(N)=O)CC1 [Compound I-0463]
10 to 100	COC(=O)Nc1cc(Cl)ccc1-c1cc(=O)n(CC(=O)NCCNS(C)(=O)=O)c(C)n1 [Compound I-0464]
< 10	CNS(=O)(=O)CCNC(=O)Cn1c(C)nc(-c2ccc(Cl)cc2NC(=O)OC)cc1=O [Compound I-0465]
10 to 100	COC(=O)Nc1cc(Cl)ccc1-c1cc(=O)n(CC(=O)NC2(c3nc(C)no3)CC2)c(C)n1 [Compound I-0467]
10 to 100	CC(C)(C)C(=O)Nc1cc(Cl)ccc1-c1cc(=O)n(CC(=O)N2CCC(C(N)=O)CC2)cn1 [Compound I-0468]
100 to 1000	CC(C)(C)C(=O)Nc1cc(Cl)ccc1-c1cc(=O)n(CC(=O)NCC2CCC(=O)NC2)cn1 (stereo not shown) [Compound I-0469]

IC50 [nM]	SMILES
10 to 100	COC(=O)Nc1cc(Cl)ccc1-c1cc(=O)n(CC(=O)N2CCC(C(=N)NO)CC2)c(C)n1 [Compound I-0471]
≥ 1000	O=C(Cn1cnc(-c2ccc(Cl)cc2)cc1=O)NCCCCNC(=O)c1ccc2nn[nH]c2c1 [Compound I-0472]
10 to 100	Cc1nc(-c2ccc(Cl)cc2NC(=O)C2CC2)cc(=O)n1CC(=O)NCCNS(C)(=O)=O [Compound I-0473]
10 to 100	CNS(=O)(=O)CCNC(=O)Cn1c(C)nc(-c2ccc(Cl)cc2NC(=O)C2CC2)cc1=O [Compound I-0474]
10 to 100	Cc1noc(C2(NC(=O)Cn3c(C)nc(-c4ccc(Cl)cc4NC(=O)C4CC4)cc3=O)CC2)n1 [Compound I-0475]
≥ 1000	O=C(Cn1cnc(-c2ccc(Cl)cc2)cc1=O)NCCCCCNC(=O)c1ccc2[nH]nnc2c1 [Compound I-0476]
100 to 1000	CC(C)(C)NC(=O)c1cccc(Cn2cnc(-c3ccc(Cl)cc3NC(=O)C(C)(C)C)cc2=O)c1 [Compound I-0477]
100 to 1000	CC(C)(C)C(=O)Nc1cc(Cl)ccc1-c1cc(=O)n(Cc2cccc(C(=O)NCC(N)=O)c2)cn1 [Compound I-0478]
10 to 100	CNC(=O)NC1CCN(C(=O)Cn2c(C)nc(-c3ccc(Cl)cc3NC(=O)C3CC3)cc2=O)CC1 [Compound I-0479]
10 to 100	COC(=O)Nc1cc(Cl)ccc1-c1cc(=O)n(CC(=O)NC2(c3ccc(F)cc3)COC2)c(C)n1 [Compound I-0480]
10 to 100	COC(=O)Nc1cc(Cl)ccc1-c1cc(=O)n(CC(=O)N2CCN(CC(F)(F)F)CC2)c(C)n1 [Compound I-0481]
< 10	COC(=O)Nc1cc(Cl)ccc1-c1cc(=O)n(CC(=O)N2CCC(c3nc(=O)o[nH]3)CC2)c(C)n1 [Compound I-0482]
100 to 1000	O=C(Cn1cnc(-c2ccc(Cl)cc2)cc1=O)NCCCCCCNC(=O)c1ccc2nn[nH]c2c1 [Compound I-0483]
10 to 100	Cc1nc(-c2ccc(Cl)cc2NC(=O)C2CC2)cc(=O)n1CC(=O)NC1(c2ccc(F)cc2)COC1 [Compound I-0484]
10 to 100	Cc1nc(-c2ccc(Cl)cc2NC(=O)C2CC2)cc(=O)n1CC(=O)N1CCN(CC(F)(F)F)CC1 [Compound I-0485]
100 to 1000	CC(C)(C)C(=O)Nc1cc(Cl)ccc1-c1cc(=O)n(Cc2cccc(C(=O)NC(CO)CO)c2)cn1 [Compound I-0486]
